Reference: US9248202B2, “Two-photon probe for detecting copper(II) ion and quantitative estimation of copper(II) ion in human tissue using the same” (Korea University Research and Business Foundation, priority 2014, dated 2016)

Assays:
[1] = Two-photon action cross section; assay type: physicochemical; conditions: EtOH/HEPES (9/1 v/v, pH 7.0)
Experimental: Referring to FIG. 4(a), the Φδmax value of ACCu2 in EtOH/HEPES (9/1 v/v, pH 7.0) buffer was 32 GM at 880 nm, while those for FL and IR were 32 GM at 880 nm and 46 GM at 750 nm. The lower Φδmax value of ACCu2 at 750 nm than that of IR is because of decreased fluorescence resonance energy transfer (FRET) from IR to FL and it allows to obtain bright TPM images of cells and ^.tissues labeled with ACCu2.
The two-photon cross section (δ) was determined by the fe tosecond (fs) fluorescence measurement technique described in the literature (S. K. Lee, W. J. Yang, J. J. Choi, C. H. Kim, S.-J. Jeon, B. R. Cho, Org. Lett 2005, 7, 323-326.), ACCu2 was dissolved in 20 mM HEPES buffer (pH 7.0) to a concentration of 3.0×10^−6 M and then two-photon induced fluorescence intensity was measured at 740-940 nm using rhodamine 6G as a reference, whose two-photon property has been well characterized. The intensities of two-photon induced fluorescence of the reference and the sample were determined at the same excitation wavelength.
The two-photon cross section can be calculated from equation (3). δ=δr(SsΦrΦrcr)/(SrΦsΦscs) Equation (3)
wherein s and r stand for the sample, i.e., ACCu2, and the reference, respectively. S denotes the intensity of the signal collected using a CCD detector, Φ is the fluorescence quantum yield, Φ is the overall fluorescence collection efficiency of the experimental apparatus, c is the number density of molecules in solution, and δr is the two-photon cross section of the reference molecule.

[2] = Absorption and fluorescence spectra, quantum yield, energy transfer; assay type: physicochemical; conditions: for φ (fluorescence quantum yield): uncertainty ± 15%; for λmax^abs: one-photon absorption; for λmax^t1: one-photon emission
Experimental: Absorption spectra were recorded using the Hewlett-Packard 8453 diode array spectrophotometer and fluorescence spectra were measured using the Amico-Bowman series 2 luminescence spectrometer a 1 cm standard quartz cell. The fluorescence quantum yield was determined using coumarin 307 and rhodamine B as references according to the literature method (J. N. Demas, G. A. Crosby, J. Phys. Chem. 1971, 75, 991).
(hereinafter, ‘ACCu2’), a compound of [Chemical Formula 12] (hereinafter, ‘FL’) and a compound of [Chemical Formula 13] (hereinafter, ‘IR’) in 1,4-dioxane, DMF, ethanol, EtOH/HEPES (9:1) and HEPES buffer ([HEPES]=20 mM, pH 7.0). Excitation wavelength was 420 nm. The solubility of ACCu2 in HEPES buffer ([HEPES]=20 mM, pH 7.0) as determined by the fluorescence method described in the literature (Kim, H. M.; Choo, H. J.; Jung, S. Y.; Ko, Y. G.; Park, W. H.; Jeon, S. J.; Kim, C. H.; Joo, T. H.; Cho, B. R. Chem Bio Chem 2007, 8, 553) was 8.0 μM, which was sufficient to stain cells.
To assess the origin of the spectral changes, the energy transfer efficiency (ETE) was calculated using Equation (1). The ETE was 93.4%.
In Equation (1), AIR and AIR′ are the absorbances of the IR moiety and IR, respectively, and FIR and FIR′ are the emission intensities of the IR moiety and IR, respectively, upon excitation at 373 nm.
The antenna effect in the one-photon (OP) (or TP) mode was 3.0 (or 3.1). The antenna effect was calculated by dividing the area of emission from the FL moiety upon excitation of the IR moiety at 373 nm (or 750 nm in the TP mode) by that collected from the direct excitation of FL at 461 nm (or 880 nm in the […]).

Φδmax (two-photon action cross section) ([1]; at 750 nm) | φ (fluorescence quantum yield) ([2]; 1,4-Dioxane (0.164)) | φ (fluorescence quantum yield) ([2]; DMF (0.386)) | φ (fluorescence quantum yield) ([2]; EtOH (0.654)) | φ (fluorescence quantum yield) ([2]; EtOH/HEPES (9:1)) | φ (fluorescence quantum yield) ([2]; HEPES buffer 20 mM, pH 7.0) | λmax^abs ([2]; 1,4-Dioxane (0.164)) | λmax^abs ([2]; DMF (0.386)) | λmax^abs ([2]; EtOH (0.654)) | λmax^abs ([2]; EtOH/HEPES (9:1)) | λmax^abs ([2]; HEPES buffer 20 mM, pH 7.0) | λmax^t1 ([2]; 1,4-Dioxane (0.164)) | λmax^t1 ([2]; DMF (0.386)) | λmax^t1 ([2]; EtOH (0.654)) | λmax^t1 ([2]; EtOH/HEPES (9:1)) | λmax^t1 ([2]; HEPES buffer 20 mM, pH 7.0) | Φδmax (two-photon action cross section) ([1]; at 880 nm) | SMILES
46 GM | 0.080 | 0.070 | 0.18 | 0.62 | 1.00 | 367 nm | 366 nm | 372 nm | 373 nm | 375 nm | 445 nm | 448 nm | 451 nm | 460 nm | 468 nm |  | COCCOCCOCCOc1ccc2c(ccc3cc(C(=O)N4CCNCC4)c(=O)oc32)c1 [IR]
 | 0.77 | 0.29 | 0.25 | 0.15 | 0.0045 | 438 nm | 454 nm | 457 nm | 461 nm | 452 nm | 536 nm | 576 nm | 582 nm | 587 nm | 590 nm | 32 GM | CN(C)c1ccc2cc3cc(C(=O)NCc4ccc(C(=O)O)cn4)c(=O)oc3cc2c1 [FL]
